Where two headings read alike, the source gives them in different places.
Experiments:
[1] = tested on: rat striatal synaptosomes; type: cell-based
[2] = tested on: rat hippocampal synaptosomes; conditions: read-out: EC50 for release of hippocampal norepinephrine; cited from earlier work
[3] = tested on: rat striatal synaptosomes; conditions: cited from earlier work

SMILES | Block of nicotine-stimulated [3H]-dopamine release [1] | EC50 [2] [µM] | EC50 ([3]; read-out: EC50 for increase of [3H]-dopamine release) [µM] | EC50 ([3]; read-out: EC50 for release of striatal dopamine) [µM]
CNC1(C)C2CCC(C2)C1(C)C (stereo not shown) [mecamylamine] | fully blocked |  |  | 
CN1CCCC1c1cccnc1 (stereo not shown) [nicotine] |  | 6.5 | 0.16 | 0.16

Reference: US6958323B2 (priority 1997, dated 2005)
